We go through 22 molecules from patent publication US6784184B2, “5-(arylsulfonyl)-,5-(arylsulfinyl), and 5-(arylsulfanyl)-thiazolidine-2,4-diones useful for inhibition of farnesyl-protein transferase” (Wyeth Holdings Corporation, priority 2001, dated 2004).

For one assay, the target named is FPTase (K-Ras substrate) (UniProt P29702+P49355). The assay can be described thus: in vitro FTase Inhibition Assay, K-Ras as substrate for farnesylation. In kind it is biochemical. Conditions: K-Ras used as substrate for farnesylation. The method, then:
(§1) The ability of the compounds of this invention to inhibit FPTase was evaluated in the standard pharmacological in vitro test procedures described below.
(§2) Methods—1. […] 2. Solution #1 is added to FPTase reaction in a volume of […]. 3. Standard reaction mix, […], contains 50 mM Tris (7.5), […], 3 mM MgCl2, 20 mM KCl, 5 mM DTT, 0.2% octyl-B-glucoside, 1% DMSO, […], 10 ng FPTase, and various concentrations of FPTase inhibitors. 4. Incubate for 30-90 min at […] 5. Stop reactions with TCA/SDS (6%/2%), hold at 4° C. for 45-60 min. 6. Filter by manifold or 96 well plate, wash filter 3-5× with TCA (6%). 7. Add scintillant to filters, measure ^3H-FPP incorporation into Ras protein.
(§3) (cpm from precipitated Ras with test compounds)−(background cpm)×100=% inhibition.
(§4) (cpm from precipitated Ras without test compounds)−(background cpm)

In another assay the target is FPTase (H-Ras substrate) (UniProt P29702+P49355). The assay can be described thus: in vitro FTase Inhibition Assay, H-Ras as substrate for farnesylation. Conditions: H-Ras used as substrate for farnesylation. In kind it is biochemical. The method, then: as §1, §2, §3, §4

Regarding `Cc1ccc(C)c(C#CCCCC2(S(=O)(=O)c3ccc(I)cc3)SC(=O)NC2=O)c1` (centres unmarked) [Example 134, 5-[5-(2,5-Dimethylphenyl)pent-4-ynyl]-5-(4-iodobenzenesulfonyl)-thiazolidine-2,4-dione], the half-maximal inhibitory concentration (IC50) against FPTase (K-Ras substrate) was 430 to 680 nM; at FPTase (H-Ras substrate) it was 14 to 850 nM.

In the case of `COc1ccc(S(=O)(=O)C2(CCCC#Cc3cc(NC(=O)OCC(C)(C)C)ccc3C)SC(=O)N(C(=O)OCC(C)(C)C)C2=O)cc1` (centres unmarked) [Example 230, Neopentyl 5-[(4-methoxyphenyl)sulfonyl]-5-[5-(2-methyl-5-{[(neopentyloxy)carbonyl]-amino}phenyl)pent-4-ynyl]-2,4-dioxo-1,3-thiazolidine-3-carboxylate], the values for the 50% inhibitory concentration (IC50) on FPTase (K-Ras substrate) and against FPTase (H-Ras substrate) were 20 to 500 nM and 3 to 3.5 nM, respectively.

Turning to `COc1ccc(S(=O)(=O)C2(CCCC#Cc3cc(NC(=O)OC(C)(C)C)ccc3C)SC(=O)NC2=O)cc1` (centres unmarked) [Example 150, (3-{5-[5-(4-Methoxybenzenesulfonyl)-2,4-dioxothiazolidin-5-yl]pent-1-ynyl}-4-methylphenyl)carbamic Acid tert-Butyl Ester], the IC50 against FPTase (K-Ras substrate) fell in the range of 16 to 68 nM; at FPTase (H-Ras substrate), 7.4 to 32 nM.

`COc1ccc(S(=O)(=O)C2(CCCC#Cc3cc(NC(=O)OCc4ccccc4)ccc3C)SC(=O)N(C(=O)OCc3ccccc3)C2=O)cc1` (centres unmarked) [Example 226, Benzyl 5-[5-(5-{[(benzyloxy)carbonyl]-amino}-2-methylphenyl)pent-4-ynyl]-5-[(4-methoxyphenyl)sulfonyl]-2,4-dioxo-1,3-thiazolidine-3-carboxylate]: the values for the IC50 against FPTase (K-Ras substrate) and against FPTase (H-Ras substrate) were 100 to 3200 nM and 30 to 50 nM, respectively.

Consider `O=C1NC(=O)C(CCCC#Cc2ccc(Cl)cc2)(S(=O)(=O)c2ccc(I)cc2)S1` (centres unmarked) [Example 104, 5-[5-(4-Chlorophenyl)pent-4-ynyl]-5-(4-iodobenzenesulfonyl)-thiazolidine-2,4-dione], for which the IC50 on FPTase (K-Ras substrate) was in the range of 230 to 900 nM; against FPTase (H-Ras substrate), 30 to 54 nM.

In the case of `COc1ccc(S(=O)(=O)C2(CCCC#Cc3cc(NC(=O)Nc4ccc(Cl)cc4)ccc3C)SC(=O)NC2=O)cc1` (centres unmarked) [Example 189, N-(4-Chlorophenyl)-N′-[3-(5-{5-[(4-methoxy-phenyl)sulfonyl]-2,4-dioxo-1,3-thiazolidin-5-yl}-1-pentynyl)-4-methylphenyl]urea], the IC50 against FPTase (K-Ras substrate) came out at 1200 nM; against FPTase (H-Ras substrate), 100 nM.

Consider `CCCCOc1ccc(S(=O)(=O)C2(CCCC#Cc3ccc(Cl)cc3)SC(=O)NC2=O)cc1` (centres unmarked) [Example 112, 5-(4-Butoxybenzenesulfonyl)-5-[5-(4-chlorophenyl)-pent-4-ynyl]-thiazolidine-2,4-dione], for which the IC50 fell in the range of 1400 to 1500 nM on FPTase (K-Ras substrate) and 590 to 600 nM at FPTase (H-Ras substrate).

As to `COc1ccc(S(=O)(=O)C2(CCCC#Cc3cc(C)ccc3C)SC(=O)NC2=O)cc1` (centres unmarked) [Example 135, 5-[5-(2,5-Dimethylphenyl)pent-4-ynyl]-5-(4-methoxybenzenesulfonyl)-thiazolidine-2,4-dione], the IC50 lay in the range of 1900 to 2100 nM against FPTase (K-Ras substrate) and 20 to 32 nM against FPTase (H-Ras substrate).

The molecule `O=C1NC(=O)C(CCCC#Cc2ccc(Cl)cc2)(Sc2ccc(F)cc2)S1` (centres unmarked) [Example 96, 5-[5-(4-Chlorophenyl)pent-4-ynyl]-5-(4-fluorophenylsulfanyl)-thiazolidine-2,4-dione] displayed an IC50 at FPTase (H-Ras substrate) of 700 nM.

Regarding `O=C1NC(=O)C(CCCC#Cc2ccc(Cl)cc2)(S(=O)(=O)c2ccc(Oc3ccccc3)cc2)S1` (centres unmarked) [Example 106, 5-[5-(4-Chlorophenyl)pent-4-ynyl]-5-(4-phenoxybenzenesulfonyl)-thiazolidine-2,4-dione], the IC50 against FPTase (K-Ras substrate) was in the range of 1300 to 1700 nM; against FPTase (H-Ras substrate), 230 to 250 nM.

Turning to `COC(=O)Nc1ccc(C)c(C#CCCCC2(S(=O)(=O)c3ccc(OC)cc3)SC(=O)N(C(=O)OC)C2=O)c1` (centres unmarked) [Example 228, Methyl 5-(5-{5-[(methoxycarbonyl)amino]-2-methylphenyl}pent-4-ynyl)-5-[(4-methoxyphenyl)sulfonyl]-2,4-dioxo-1,3-thiazolidine-3-carboxylate], the IC50 against FPTase (K-Ras substrate) lay in the range of 230 to 1000 nM; against FPTase (H-Ras substrate) it was 4 to 70 nM.

Regarding `O=C1NC(=O)C(CCCC#Cc2ccc(Cl)cc2)(S(=O)(=O)c2cccc3ccccc23)S1` (centres unmarked) [Example 113, 5-[5-(4-Chlorophenyl)pent-4-ynyl]-5-(naphthalene-1-sulfonyl)-thiazolidine-2,4-dione], the IC50 against FPTase (K-Ras substrate) was in the range of 750 to 800 nM; on FPTase (H-Ras substrate), 50 to 60 nM.

For `CC(=O)Nc1ccc(S(=O)(=O)C2(CCCC#Cc3ccc(Cl)cc3)SC(=O)NC2=O)cc1` (centres unmarked) [Example 108, N-(4-{5-[5-(4-Chlorophenyl)pent-4-ynyl]-2,4-dioxothiazolidine-5-sulfonyl}phenyl)acetamide], the IC50 at FPTase (K-Ras substrate) was not below 9000 nM; against FPTase (H-Ras substrate) it was 130 to 180 nM.

On to `COc1cccc(S(=O)(=O)C2(CCCC#Cc3cccs3)SC(=O)NC2=O)c1` (centres unmarked) [Example 164, 5-(3-Methoxybenzenesulfonyl)-5-(5-thiophen-2-yl-pent-4-ynyl)-thiazolidine-2,4-dione], for which the figures for the IC50 on FPTase (K-Ras substrate) and against FPTase (H-Ras substrate) were more than 10000 nM and 150 nM, respectively.

Turning to `COc1ccc(S(=O)(=O)C2(CCCC#Cc3ccccc3Cl)SC(=O)NC2=O)cc1` (centres unmarked) [Example 101, 5-[5-(2-Chlorophenyl)pent-4-ynyl]-5-(4-methoxybenzenesulfonyl)-thiazolidine-2,4-dione], the IC50 on FPTase (K-Ras substrate) lay in the range of 110 to 1000 nM; against FPTase (H-Ras substrate), 10 to 30 nM.

As for `COc1ccc(S(=O)(=O)C2(CCCC#Cc3cc(NC(=O)OCC(C)C)ccc3C)SC(=O)N(C(=O)OCC(C)C)C2=O)cc1` (centres unmarked) [Example 232, Isobutyl 5-(5-{5-[(isobutoxycarbonyl)-amino]-2-methylphenyl}pent-4-ynyl)-5-[(4-methoxyphenyl)sulfonyl]-2,4-dioxo-1,3-thiazolidine-3-carboxylate], the half-inhibitory concentration (IC50) at FPTase (K-Ras substrate) lay within 40 to 640 nM; against FPTase (H-Ras substrate), 5 to 10 nM.

Turning to “5-[5-(4-Chloro-2-methylphenyl)pent-4-ynyl]-5-(4-trifluoromethoxy-benzenesulfonyl)thiazolidine-2,4-dione [Example 140]”, the IC50 lay in the range of 1000 to 3600 nM at FPTase (K-Ras substrate) and 150 to 300 nM at FPTase (H-Ras substrate).

`O=C1NC(=O)C(CCCC#Cc2ccc(-n3cccc3)cc2)(S(=O)(=O)c2ccc(OC(F)(F)F)cc2)S1` (centres unmarked) [Example 163, 5-[5-(4-Pyrrol-1-ylphenyl)pent-4-ynyl]-5-(4-trifluoromethoxybenzenesulfonyl)-thiazolidine-2,4-dione] registered an IC50 at FPTase (H-Ras substrate) of 1300 nM. This lies in the single-digit micromolar range.

Molecule `COc1ccc(S(=O)(=O)C2(CCCC#Cc3ccc(Cl)cc3)SC(=O)N(CCCn3ccnc3)C2=O)cc1` (centres unmarked) [Example 233, 5-[5-(4-Chlorophenyl)pent-4-ynyl]-3-(3-imidazol-1-yl-propyl)-5-(4-methoxybenzenesulfonyl)-thiazolidine-2,4-dione] had an IC50 at FPTase (H-Ras substrate) of 2900 nM.

For the molecule `COc1ccc(S(=O)(=O)C2(CCCC#Cc3ccc(-n4cccc4)cc3)SC(=O)NC2=O)cc1` (centres unmarked) [Example 161, 5-(4-Methoxybenzenesulfonyl)-5-[5-(4-pyrrol-1-yl-phenyl)pent-4-ynyl]-thiazolidine-2,4-dione], the midpoint of inhibition on FPTase (H-Ras substrate), the IC50, lay at 900 nM.

Consider `Cc1ccc(S(=O)(=O)C2(CC#Cc3cccs3)SC(=O)NC2=O)cc1` (centres unmarked) [Example 168, 5-(3-Thiophen-2-yl-prop-2-ynyl)-5-(toluene-4-sulfonyl)-thiazolidine-2,4-dione], for which half-maximal inhibition on FPTase (H-Ras substrate) (IC50) was put at 280 nM.

In the case of `COc1ccc(S(=O)(=O)C2(CC#Cc3cccnc3)SC(=O)NC2=O)cc1` (centres unmarked) [Example 167, 5-(4-Methoxybenzenesulfonyl)-5-(3-pyridin-3-ylprop-2-ynyl)-thiazolidine-2,4-dione], the midpoint of inhibition on FPTase (H-Ras substrate), the IC50, lay at 1500 nM.
